According to ChEMBL document CHEMBL4651402, “Screening of ~5500 FDA-approved drugs and clinical candidates for anti-SARS-CoV-2 activity” (2021):

Tests used:
SARS-CoV-2 [1] = experiment: microbe, parasite or virus in culture; settings: Severe acute respiratory syndrome coronavirus 2, Vero C1008, 48 h
in vitro = settings: chlorocebus sabaeus
SARS-CoV-2 [2] = experiment: microbe, parasite or virus in culture; assay type: functional, organism-based, Chlorocebus sabaeus, Vero C1008; settings: Severe acute respiratory syndrome coronavirus 2, Vero C1008, 48 h
[3] = Vero E6 (Vero C1008) cells, CC50
[4] = Vero E6 (Vero C1008) cells, pCC50

SMILES: C[C@H]1c2ccccc2[C@@H](CCCN(C)C)c2cc(C(F)(F)F)ccc21
- IC50 (SARS-CoV-2 [1]): > 100 µM
- IC50 (SARS-CoV-2 [1]; read-out: pIC50 (converted)): > 100 µM
- CC50 at 48 h (in vitro; [3]): 12 µM
- CC50 at 48 h (in vitro; [4]): 12 µM
- IC50 (SARS-CoV-2 [2]; read-out: IC50): 10.5 µM
- IC50 (SARS-CoV-2 [2]; read-out: pIC50 (converted)): 10.5 µM

SMILES: CO[C@H]1CC[C@H](n2c([C@H]3CCCC(=O)N3c3ccc(F)c(F)c3)nc3cc(-c4c(C)noc4C)ccc32)CC1 (relative stereo)
- IC50 (SARS-CoV-2 [1]): > 100 µM
- IC50 (SARS-CoV-2 [1]; read-out: pIC50 (converted)): > 100 µM
- CC50 at 48 h (in vitro; [3]): 9.12 µM
- CC50 at 48 h (in vitro; [4]): 9.12 µM
- IC50 (SARS-CoV-2 [2]; read-out: IC50): > 100 µM
- IC50 (SARS-CoV-2 [2]; read-out: pIC50 (converted)): > 100 µM

SMILES: Nc1nc2nn[nH]c2c(=O)[nH]1 [8-AZAGUANINE]
- IC50 (SARS-CoV-2 [1]): > 50.1 µM
- IC50 (SARS-CoV-2 [1]; read-out: pIC50 (converted)): > 50.1 µM
- CC50 at 48 h (in vitro; [3]): 23.7 µM
- CC50 at 48 h (in vitro; [4]): 23.4 µM
- IC50 (SARS-CoV-2 [2]; read-out: IC50): > 50.1 µM
- IC50 (SARS-CoV-2 [2]; read-out: pIC50 (converted)): > 50.1 µM

SMILES: CNCC[C@@H](Oc1cccc2ccccc12)c1cccs1 [(R)-DULOXETINE]
- IC50 (SARS-CoV-2 [1]): 7.24 µM
- IC50 (SARS-CoV-2 [1]; read-out: pIC50 (converted)): 7.24 µM
- CC50 at 48 h (in vitro; vero c1008, CC50): 16.2 µM
- CC50 at 48 h (in vitro; vero c1008, pCC50): 16.2 µM
- IC50 (SARS-CoV-2 [2]; read-out: IC50): > 100 µM
- IC50 (SARS-CoV-2 [2]; read-out: pIC50 (converted)): > 100 µM

SMILES: CN[C@@H]1C[C@@H](c2ccc(Cl)c(Cl)c2)c2ccccc21 [(R,S)-INDATRALINE]
- IC50 (SARS-CoV-2 [1]): 8.32 µM
- IC50 (SARS-CoV-2 [1]; read-out: pIC50 (converted)): 8.32 µM
- CC50 at 48 h (in vitro; [3]): 8.51 µM
- CC50 at 48 h (in vitro; [4]): 8.51 µM
- IC50 (SARS-CoV-2 [2]; read-out: IC50): > 100 µM
- IC50 (SARS-CoV-2 [2]; read-out: pIC50 (converted)): > 100 µM

SMILES: CC(=O)O[C@H]1CC[C@@]2(C)C(=CC[C@@H]3[C@@H]2CC[C@]2(C)C(c4cccnc4)=CC[C@@H]32)C1 [ABIRATERONE ACETATE]
- IC50 (SARS-CoV-2 [1]): > 100 µM
- IC50 (SARS-CoV-2 [1]; read-out: pIC50 (converted)): > 100 µM
- CC50 at 48 h (in vitro; [3]): 9.89 µM
- CC50 at 48 h (in vitro; [4]): 9.77 µM
- IC50 (SARS-CoV-2 [2]; read-out: IC50): > 25.1 µM
- IC50 (SARS-CoV-2 [2]; read-out: pIC50 (converted)): > 25.1 µM

SMILES: CC(=O)c1ccc2c(c1)N(CCCN(C)C)c1ccccc1S2 [ACEPROMAZINE]
- IC50 (SARS-CoV-2 [1]): > 100 µM
- IC50 (SARS-CoV-2 [1]; read-out: pIC50 (converted)): > 100 µM
- CC50 at 48 h (in vitro; [3]): 22.4 µM
- CC50 at 48 h (in vitro; [4]): 22.4 µM
- IC50 (SARS-CoV-2 [2]; read-out: IC50): > 100 µM
- IC50 (SARS-CoV-2 [2]; read-out: pIC50 (converted)): > 100 µM

SMILES: CC(=O)c1ccc2c(c1)N(CCCN1CCN(CCO)CC1)c1ccccc1S2 [ACETOPHENAZINE]
- IC50 (SARS-CoV-2 [1]): > 100 µM
- IC50 (SARS-CoV-2 [1]; read-out: pIC50 (converted)): > 100 µM
- CC50 at 48 h (in vitro; [3]): ~14.6 µM
- CC50 at 48 h (in vitro; [4]): ~14.5 µM
- IC50 (SARS-CoV-2 [2]; read-out: IC50): > 100 µM
- IC50 (SARS-CoV-2 [2]; read-out: pIC50 (converted)): > 100 µM

SMILES: Cc1cc(O[C@@H](CCC(F)(F)F)c2ccc(C(=O)NCCC(=O)O)cc2)cc(C)c1-c1ccc(C(C)(C)C)cc1 [ADOMEGLIVANT]
- IC50 (SARS-CoV-2 [1]): > 10 µM
- IC50 (SARS-CoV-2 [1]; read-out: pIC50 (converted)): > 10 µM
- CC50 at 48 h (in vitro; [3]): ~10.4 µM
- CC50 at 48 h (in vitro; [4]): ~10.2 µM
- IC50 (SARS-CoV-2 [2]; read-out: IC50): > 6.31 µM
- IC50 (SARS-CoV-2 [2]; read-out: pIC50 (converted)): > 6.31 µM

SMILES: CNC(=O)[C@@H](c1ccccc1)N1CCc2cc(OC)c(OC)cc2[C@@H]1CCc1ccc(C(F)(F)F)cc1 [ALMOREXANT]
- IC50 (SARS-CoV-2 [1]): 18.6 µM
- IC50 (SARS-CoV-2 [1]; read-out: pIC50 (converted)): 18.6 µM
- CC50 at 48 h (in vitro; [3]): 21.4 µM
- CC50 at 48 h (in vitro; [4]): 21.4 µM
- IC50 (SARS-CoV-2 [2]; read-out: IC50): > 25.1 µM
- IC50 (SARS-CoV-2 [2]; read-out: pIC50 (converted)): > 25.1 µM

SMILES: CCOC(=O)[C@H]1O[C@@H]1C(=O)N[C@@H](CC(C)C)C(=O)NCCC(C)C [ALOXISTATIN]
- IC50 (SARS-CoV-2 [1]): 34.3 µM
- IC50 (SARS-CoV-2 [1]; read-out: pIC50 (converted)): 33.9 µM
- CC50 at 48 h (in vitro; [3]): > 100 µM
- CC50 at 48 h (in vitro; [4]): > 100 µM
- IC50 (SARS-CoV-2 [2]; read-out: IC50): 85.1 µM
- IC50 (SARS-CoV-2 [2]; read-out: pIC50 (converted)): 85.1 µM

SMILES: C=C1CC[C@@H]2[C@](C)(CO)[C@H](O)CC[C@@]2(C)[C@@H]1C/C=C1/C(=O)OC[C@H]1O [ANDROGRAPHOLIDE]
- IC50 (SARS-CoV-2 [1]): > 100 µM
- IC50 (SARS-CoV-2 [1]; read-out: pIC50 (converted)): > 100 µM
- CC50 at 48 h (in vitro; [3]): ~21.6 µM
- CC50 at 48 h (in vitro; [4]): ~21.4 µM
- IC50 (SARS-CoV-2 [2]; read-out: IC50): > 100 µM
- IC50 (SARS-CoV-2 [2]; read-out: pIC50 (converted)): > 100 µM

SMILES: O=C1c2c(O)cccc2Cc2cccc(O)c21 [ANTHRALIN]
- IC50 (SARS-CoV-2 [1]): > 100 µM
- IC50 (SARS-CoV-2 [1]; read-out: pIC50 (converted)): > 100 µM
- CC50 at 48 h (in vitro; [3]): > 100 µM
- CC50 at 48 h (in vitro; [4]): > 100 µM
- IC50 (SARS-CoV-2 [2]; read-out: IC50): > 100 µM
- IC50 (SARS-CoV-2 [2]; read-out: pIC50 (converted)): > 100 µM

SMILES: CN1CCCC(n2nc(Cc3ccc(Cl)cc3)c3ccccc3c2=O)CC1 (centres undefined) [AZELASTINE]
- IC50 (SARS-CoV-2 [1]): 13.3 µM
- IC50 (SARS-CoV-2 [1]; read-out: pIC50 (converted)): 13.2 µM
- CC50 at 48 h (in vitro; [3]): 17.8 µM
- CC50 at 48 h (in vitro; [4]): 17.8 µM
- IC50 (SARS-CoV-2 [2]; read-out: IC50): > 100 µM
- IC50 (SARS-CoV-2 [2]; read-out: pIC50 (converted)): > 100 µM

SMILES: Nc1nc(Nc2ccc3c(c2)CC[C@@H](N2CCCC2)CC3)nn1-c1cc2c(nn1)-c1ccccc1CCC2 [BEMCENTINIB]
- IC50 (SARS-CoV-2 [1]): 1.78 µM
- IC50 (SARS-CoV-2 [1]; read-out: pIC50 (converted)): 1.78 µM
- CC50 at 48 h (in vitro; [3]): 1.55 µM
- CC50 at 48 h (in vitro; [4]): 1.55 µM
- IC50 (SARS-CoV-2 [2]; read-out: IC50): > 50.1 µM
- IC50 (SARS-CoV-2 [2]; read-out: pIC50 (converted)): > 50.1 µM

SMILES: CNCc1ccc(-c2cc(-c3nc(-c4ccc(S(=O)(=O)C(C)C)cc4)cnc3N)on2)cc1 [BERZOSERTIB]
- IC50 (SARS-CoV-2 [1]): > 5.01 µM
- IC50 (SARS-CoV-2 [1]; read-out: pIC50 (converted)): > 5.01 µM
- CC50 at 48 h (in vitro; [3]): 10.2 µM
- CC50 at 48 h (in vitro; [4]): 10.2 µM
- IC50 (SARS-CoV-2 [2]; read-out: IC50): ~7.16 µM
- IC50 (SARS-CoV-2 [2]; read-out: pIC50 (converted)): ~7.08 µM

SMILES: CNCCCCOc1ccccc1Cc1ccccc1 [BIFEMELANE]
- IC50 (SARS-CoV-2 [1]): > 100 µM
- IC50 (SARS-CoV-2 [1]; read-out: pIC50 (converted)): > 100 µM
- CC50 at 48 h (in vitro; vero c1008, CC50): 26.9 µM
- CC50 at 48 h (in vitro; vero c1008, pCC50): 26.9 µM
- IC50 (SARS-CoV-2 [2]; read-out: IC50): 20.9 µM
- IC50 (SARS-CoV-2 [2]; read-out: pIC50 (converted)): 20.9 µM

SMILES: Cc1ccc(C(=O)Oc2ccc(C(O)CNC(C)(C)C)cc2OC(=O)c2ccc(C)cc2)cc1 (centres undefined) [BITOLTEROL]
- IC50 (SARS-CoV-2 [1]): 8.13 µM
- IC50 (SARS-CoV-2 [1]; read-out: pIC50 (converted)): 8.13 µM
- CC50 at 48 h (in vitro; [3]): 5.69 µM
- CC50 at 48 h (in vitro; [4]): 5.62 µM
- IC50 (SARS-CoV-2 [2]; read-out: IC50): > 100 µM
- IC50 (SARS-CoV-2 [2]; read-out: pIC50 (converted)): > 100 µM

SMILES: CNCc1ccc(C)c(NC(=O)c2ccc(Nc3nc(-c4ccccc4)c4ccccc4n3)cc2)c1 [BMS-833923]
- IC50 (SARS-CoV-2 [1]): 2.95 µM
- IC50 (SARS-CoV-2 [1]; read-out: pIC50 (converted)): 2.95 µM
- CC50 at 48 h (in vitro; [3]): 3.09 µM
- CC50 at 48 h (in vitro; [4]): 3.09 µM
- IC50 (SARS-CoV-2 [2]; read-out: IC50): > 100 µM
- IC50 (SARS-CoV-2 [2]; read-out: pIC50 (converted)): > 100 µM
